Measured values as given in US11583507B2, “Direct AMPK activator compounds” (SOCIETE DES PRODUITS NESTLE S.A., priority 2018, dated 2023).

Experiments:
AMPKα2β1γ1 (211) = molecular target: T1, AMPKα2β1γ1 (211) (Homo sapiens, UniProt P54619+P54646+Q9Y478); test: AMPK in vitro activity assay (HTRF-KinEASE), phosphorylated bacterially-expressed complex; type: biochemical; conditions: fold activation vs complex without compound; 30 mins incubation
T1 construct: His; made in house; host or cells: bacteria
T1 sequence (P54646 whole entry): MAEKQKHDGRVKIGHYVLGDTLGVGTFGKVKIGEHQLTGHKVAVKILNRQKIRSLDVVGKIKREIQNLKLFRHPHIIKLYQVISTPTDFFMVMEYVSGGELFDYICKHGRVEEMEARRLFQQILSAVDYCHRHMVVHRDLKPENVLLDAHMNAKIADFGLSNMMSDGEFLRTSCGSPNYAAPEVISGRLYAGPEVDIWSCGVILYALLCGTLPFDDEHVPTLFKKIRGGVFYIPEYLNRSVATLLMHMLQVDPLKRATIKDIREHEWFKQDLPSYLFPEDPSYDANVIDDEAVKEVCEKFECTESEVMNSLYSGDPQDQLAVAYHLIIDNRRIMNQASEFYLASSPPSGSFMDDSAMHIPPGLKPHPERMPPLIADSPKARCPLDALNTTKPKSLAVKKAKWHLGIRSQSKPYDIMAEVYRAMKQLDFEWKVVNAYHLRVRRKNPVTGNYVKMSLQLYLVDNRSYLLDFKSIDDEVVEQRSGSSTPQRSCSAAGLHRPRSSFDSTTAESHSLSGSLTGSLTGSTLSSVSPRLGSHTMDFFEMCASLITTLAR
T1 sequence (Q9Y478 whole entry): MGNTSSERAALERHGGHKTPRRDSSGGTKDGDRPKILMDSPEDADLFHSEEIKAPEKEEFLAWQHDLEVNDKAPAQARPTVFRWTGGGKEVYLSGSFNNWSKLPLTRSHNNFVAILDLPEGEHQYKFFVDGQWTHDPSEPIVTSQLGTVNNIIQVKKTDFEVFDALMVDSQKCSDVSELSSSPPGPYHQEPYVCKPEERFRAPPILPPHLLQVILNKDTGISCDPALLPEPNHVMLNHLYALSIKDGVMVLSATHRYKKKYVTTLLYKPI
T1 sequence (P54619 whole entry): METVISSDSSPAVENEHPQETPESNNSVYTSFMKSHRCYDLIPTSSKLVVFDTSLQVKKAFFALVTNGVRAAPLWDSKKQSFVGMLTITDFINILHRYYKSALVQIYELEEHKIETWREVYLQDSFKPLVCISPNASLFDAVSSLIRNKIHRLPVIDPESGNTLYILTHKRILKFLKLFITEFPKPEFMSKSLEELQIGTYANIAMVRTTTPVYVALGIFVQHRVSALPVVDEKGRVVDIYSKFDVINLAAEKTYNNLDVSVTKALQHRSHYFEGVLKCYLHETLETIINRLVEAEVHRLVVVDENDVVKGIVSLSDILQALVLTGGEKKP
Protocol: (§1) Lusianthridin (CAS 87530-30-1) was isolated from Thunia alba fruit. It was sourced from Analyticon (NP-012362). The plant was purchased through Analyticon's biomaterial supplier in 2003. The country of origin is Nepal. The AMPK heterotrimers were expressed in bacteria and purified through the His-α subunit by nickel purification. AMPK complexes were purified through gel filtration and phosphorylated by incubation with CaMKKβ, and further purified with a final gel filtration purification step. Phosphorylated purified AMPK was incubated with varying concentrations of ligand for 30 mins using substrate and reagents from the HTRF-KinEASE Cisbio assay kit (STK S1 Kit). Phosphorylation of the substrate was measured by incubating with donor and acceptor antibodies for 2 h at room temperature as per the manufacturer's protocol (and Coulerie et al., (2016) PMID: 27792327) and phosphorylated peptide detected by performing HTRF. The 665 nm/620 nm ratio was determined and the results are plotted as fold activation compared to the respective AMPK complex without any compound.

AMPK α2β2γ1 (221) = molecular target: T2, AMPK α2β2γ1 (221) (Homo sapiens, UniProt O43741+P54619+P54646); test: AMPK in vitro activity assay (HTRF-KinEASE), β2-containing complex; type: biochemical; conditions: fold activation vs complex without compound
T2 construct: His; made in house; host or cells: bacteria
T2 sequence (P54646 whole entry): as the sequence (P54646 whole entry) above
T2 sequence (O43741 whole entry): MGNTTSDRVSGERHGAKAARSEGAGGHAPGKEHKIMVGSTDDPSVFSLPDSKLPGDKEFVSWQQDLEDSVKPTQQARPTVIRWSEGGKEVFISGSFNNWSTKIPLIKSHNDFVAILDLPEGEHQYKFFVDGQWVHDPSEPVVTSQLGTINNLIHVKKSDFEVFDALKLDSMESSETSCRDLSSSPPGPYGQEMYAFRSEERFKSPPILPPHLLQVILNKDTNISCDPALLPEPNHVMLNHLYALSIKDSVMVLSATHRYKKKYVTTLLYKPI
T2 sequence (P54619 whole entry): as the sequence (P54619 whole entry) above
Protocol: as §1

[1] = molecular target: T3, AMPK α2β1γ1 R298G (211 R298G) mutant (Homo sapiens, UniProt P54619+P54646+Q9Y478, R299G); test: AMPK in vitro activity assay (HTRF-KinEASE), γ1 R298G mutant; type: biochemical; conditions: mutation in the γ1 AMP binding pocket
T3 construct: His; made in house; host or cells: bacteria
T3 sequence (P54646 whole entry): as the sequence (P54646 whole entry) above
T3 sequence (Q9Y478 whole entry): as the sequence (Q9Y478 whole entry) above
T3 sequence (P54619 whole entry R299G): as the sequence (P54619 whole entry) above, with R299G counted along it
Protocol: as §1

[2] = molecular target: T4, AMPK α2β1γ1 S108A mutant (211 S108A) (Homo sapiens, UniProt P54619+P54646+Q9Y478, S108A); test: AMPK in vitro activity assay (HTRF-KinEASE), β1 S108A mutant; type: biochemical
T4 construct: His; made in house; host or cells: bacteria
T4 sequence (P54646 whole entry): as the sequence (P54646 whole entry) above
T4 sequence (Q9Y478 whole entry S108A): as the sequence (Q9Y478 whole entry) above, with S108A counted along it
T4 sequence (P54619 whole entry): as the sequence (P54619 whole entry) above
Protocol: as §1

[3] = tested on: AMPK substrate, acetyl-CoA carboxylase (ACC); test: pACC HTRF assay in U2OS Flp-In T-REx cells; type: cell-based; conditions: 1 h, varying concentrations, dose-dependent
Protocol: U2OS Flp-In T-REx cells were seeded at 100 K in a 96-well plate and left overnight at 37 C in DMEM GlutaMAX (Thermo Fisher Scientific) supplemented with 10% (vol/vol) FBS and 100 U/ml penicillin G, and 100 μg/ml streptomycin. Cells were treated for 1 h with varying concentrations of Lusianthridin in media lacking FBS and then cells were lysed in 50 μl of Cisbio lysis buffer #1 supplemented with blocking solution as per the manufacturer's protocol (Cisbio). Cells were lysed for 30 mins at room temperature before 16 μl of lysate was incubated with 4 μl of the HTRF antibodies (1:40 dilution of the acceptor and donor (p)ACC antibodies, as per the manufacturers protocol). Lysates were incubated overnight with the antibodies before 665 nm/620 nm ratio was determined using a MolecularDevices i3 plate reader (with a HTRF cartridge add-on). For western blot analysis, SDS-sample buffer was added to the remainder of the lysate, denatured at 95 C and then subjected to western blot analysis with phospho-specific and total ACC antibodies (Cell Signalling). Bands were visualized by incubating with Li-Cor secondary antibody and scanned on a Li-Cor Odyssey machine.

primary hepatocytes = test: Lipogenesis ([1-14C]-acetate incorporation into fatty acids) in primary hepatocytes; type: cell-based, mouse; conditions: 1 h at 37 C, varying concentrations
Protocol: Hepatocyte isolation: The liver was first perfused with 50 ml perfusion buffer (Krebs-Hepes buffer with […] EDTA), followed with 50 ml collagenase A buffer (Krebs-Hepes buffer with 5 mM CaCl2 and 0.5 mg/ml collagenase). […] Hepatocytes were left to attach (3-4 h) and cultured overnight in M199 supplemented with antibiotics and 100 nM dexamethasone. Cells were used for experiments the following morning. For primary hepatocyte isolation see Example 4. For lipogenesis measurements in primary hepatocytes, cells were seeded at 600 K cells per well in a 6-well plate overnight. Media was replaced with fresh M199 media alone for 2 hours prior to incubation with varying concentrations of Lusianthridin for 1 h at 37 C, in the presence of [1-^14C]-acetate. The incorporation of [^14C] into fatty acids was determined in the lower organic layer after separation from the aqueous phase. […] Lipogenesis is controlled by the AMPK substrate ACC, and phosphorylation and inhibition of ACC by AMPK, leads to a decrease in lipogenesis. Lipogenesis was measured in primary hepatocytes by determining the incorporation of ^14C-labelled acetate into fatty acids. Lipogenesis was monitored in the presence or absence of varying concentrations of Lusianthridin for 1 h at 37 C. […] This observation is consistent with its ability to activate AMPK in hepatocytes, which leads to the phosphorylation and inhibition of ACC.

[4] = tested on: differentiated C2C12 cells; test: Glucose uptake (3H-2-deoxyglucose) into differentiated C2C12 cells; type: cell-based; conditions: Lusianthridin 100 μM for 4 h at 37 C
Protocol: C2C12 cells were maintained in DMEM GlutaMAX supplemented with 10% (vol/vol) FBS and 100 U/ml penicillin G, and 100 μg/ml streptomycin. C2C12 myoblasts were differentiated into myotubes by 7 days of culture in DMEM GlutaMAX supplemented with 2% (vol/vol) horse serum and antibiotics. Cells were transferred to serum-free media for 24 hours, before equilibrating with bicarbonate-free medium prior to treatment. Cells were treated with Control (DMSO 1% final concentration) or 100 μM Lusianthridin in the presence of ^3H-2-deoxyglucose (in Krebs-Hepes buffer containing sodium pyruvate). Cells were lysed and the quantity of ^3H determined in these samples using a scintillation counter.
Activation of AMPK in muscle cells has been previously shown to increase glucose uptake. […] Differentiated C2C12 cells were treated with either control or 100 μM Lusianthridin for 4 h at 37 C. Glucose uptake was determined by monitoring the uptake of ^3H-2-deoxyglucose into cells. […] This is consistent with the important role of AMPK in mediating glucose uptake in muscle.

SMILES: COc1cc(O)c2c(c1)CCc1cc(O)ccc1-2 [Lusianthridin, 7-Methoxy-9,10-dihydrophenanthrene-2,5-diol]
- activation of bacterially-expressed AMPKα2β1γ1 complexes (AMPKα2β1γ1 (211)): Activates
- activation of β2-containing AMPK complexes (α2β2γ1) (AMPK α2β2γ1 (221)): does not activate
- activation of AMPK α2β1γ1 γ1 R298G mutant complexes [1]: still activates
- activation of AMPK complexes with the β1 S108A mutation [2]: does not activate
- phosphorylation of the AMPK substrate ACC (pACC HTRF) [3]: increases
- rate of lipogenesis (DPM per μg of protein) (primary hepatocytes): inhibit lipogenesis in a dose-dependent manner
- fold increase in glucose uptake relative to control [4]: ~2 fold
